Measured values taken from ChEMBL document CHEMBL1201862, “PubChem BioAssay data set” (2004).
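Following 48 hours of exposure in 96-well plates, responses at five concentrations were used to interpolate endpoints linearly. GI50 is the concentration that inhibits growth by half.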 Activity calls are given as the source filed them. Rule as the data show it: active = GI50 up to about 1.1 µM and inactive = higher. Peptide text beside a SMILES is read from it. * marks the point of attachment. Cbz = O=C(OCc1ccccc1)*

Legend:
Test in all cases: NCI tumour cell line growth inhibition, 48 h
[1] = system: 786-0
[2] = system: A549
[3] = system: CCRF-CEM
[4] = system: HOP-62
[5] = system: HT-29
[6] = system: Hs-578T
[7] = system: IGROV-1
[8] = system: MCF7
[9] = system: MDA-MB-435
[10] = system: MDA-N
[11] = system: NCI-H460
[12] = system: RPMI-8226
[13] = system: SF-539
[14] = system: SK-MEL-5
[15] = system: SK-OV-3
[16] = system: SNB-19
[17] = system: UACC-62
[18] = system: M14
[19] = system: Malme-3M

Measured: GI50

CCCCCCC(CCl)c1sc(-c2csc(CCNC(=O)OC(C)(C)C)n2)nc1C(=O)OC (centres undefined)
inactive: [1] 19.3 µM | [2] 26.4 µM | [3] 17.2 µM | [4] 39.8 µM | [5] 20.6 µM | [6] 16.2 µM | [7] 30.2 µM | [8] 11 µM | [9] 12.5 µM | [10] 26.7 µM | [11] 18.2 µM | [12] 9.68 µM | [13] 21.4 µM | [14] 4.37 µM | [15] 19.1 µM | [16] 40.6 µM | [17] 13.8 µM

COc1ccc(CNc2nc(NCc3ccc(OC)cc3)nc(NC(C)C)n2)cc1
inactive: [1] 7.91 µM | [2] 6.24 µM | [4] 6.56 µM | [5] 5.41 µM | [6] 13.5 µM | [7] 7.53 µM | [18] 3.61 µM | [8] 1.77 µM | [9] 3.1 µM | [10] 2.69 µM | [19] 5 µM | [11] 3.66 µM | [12] 1.94 µM | [13] 9.08 µM | [14] 4.85 µM | [15] 93.3 µM | [16] 84.1 µM | [17] 4.28 µM

CCO[C@H]1C[C@@H](c2ccccc2)[C@]2(C)C[C@H](C(=O)OC)ON2O1
inactive: [1] > 100 µM | [2] > 100 µM | [3] > 100 µM | [4] > 100 µM | [5] > 100 µM | [6] > 100 µM | [7] > 100 µM | [18] > 100 µM | [8] > 100 µM | [9] > 100 µM | [10] > 100 µM | [19] > 100 µM | [12] > 100 µM | [13] > 100 µM | [14] > 100 µM | [16] > 100 µM | [17] > 100 µM

O=c1c(SSc2coc3cc(F)ccc3c2=O)coc2cc(F)ccc12
inactive: [1] 10 µM | [2] 7.29 µM | [3] 3.58 µM | [4] 19.8 µM | [5] 15.3 µM | [6] 14.3 µM | [7] 2.95 µM | [8] 14.6 µM | [9] 11.1 µM | [10] 13.5 µM | [19] 29.6 µM | [11] 4.43 µM | [12] 22.3 µM | [13] 28.7 µM | [14] 13.7 µM | [16] 43.5 µM | [17] 16.1 µM

CC(C)CCn1c(=O)c2c(=O)[nH][nH]c2c2ccccc21
inactive: [1] > 100 µM | [2] > 100 µM | [3] > 100 µM | [4] > 100 µM | [5] > 100 µM | [6] > 100 µM | [7] > 100 µM | [8] > 100 µM | [9] > 100 µM | [10] > 100 µM | [19] > 100 µM | [11] > 100 µM | [12] > 100 µM | [13] > 100 µM | [14] > 100 µM | [16] > 100 µM

C[C@@H](c1ccccc1)N1C[C@@H](c2ccc3c(c2)OCO3)[C@@H]2C(=O)CCC[C@@H]21
inactive: [1] 75.2 µM | [2] 57.9 µM | [3] 61 µM | [4] > 100 µM | [5] 98.9 µM | [6] 72.9 µM | [7] 41.1 µM | [18] 19.5 µM | [8] 27.8 µM | [9] 67.8 µM | [10] > 100 µM | [19] 31.3 µM | [11] 54.5 µM | [12] 38.1 µM | [14] 36.8 µM | [15] > 100 µM | [16] 75 µM | [17] 25.5 µM

CC(=O)OCC1OC(SC2=N/C(=C\c3cc4c(=O)c5ccccc5sc4s3)C(=O)N2c2ccccc2)C(OC(C)=O)C(OC(C)=O)C1OC(C)=O (centres undefined)
inactive: [1] > 100 µM | [4] > 100 µM | [5] > 100 µM | [6] > 100 µM | [7] > 100 µM | [8] 78.7 µM | [9] > 100 µM | [10] > 100 µM | [19] > 100 µM | [11] 83.2 µM | [12] 50.9 µM | [14] > 100 µM | [16] 40.4 µM | [17] > 100 µM

O=C(NC(CS)C(=O)O)c1cccc2c(=O)c3ccccc3[nH]c12 (centres undefined)
inactive: [1] > 100 µM | [2] > 100 µM | [4] > 100 µM | [5] 83.4 µM | [6] > 100 µM | [7] > 100 µM | [18] > 100 µM | [8] > 100 µM | [9] > 100 µM | [10] > 100 µM | [19] > 100 µM | [12] > 100 µM | [14] > 100 µM | [15] > 100 µM | [16] > 100 µM | [17] > 100 µM

CC(C)(/N=N/C(C)(C)C1=NCCN1)C1=NCCN1
inactive: [1] > 71.4 µM | [3] > 100 µM | [4] > 100 µM | [5] > 100 µM | [6] > 100 µM | [7] > 100 µM | [18] > 85.9 µM | [8] > 69.5 µM | [9] > 100 µM | [10] > 100 µM | [19] > 100 µM | [11] > 100 µM | [13] > 67.1 µM | [14] > 100 µM | [16] > 100 µM | [17] > 100 µM

CC(=O)Oc1ccc2[nH]c3c(C)c4cccc-4ccc3c2c1
inactive: [1] 1.85 µM | [2] 2.26 µM | [4] 2.29 µM | [5] 2.02 µM | [6] 2.64 µM | [7] 1.57 µM | [18] 2.17 µM | [8] 2.65 µM | [9] 2 µM | [10] 2.36 µM | [19] 1.78 µM | [11] 2.94 µM | [12] 3.03 µM | [14] 1.83 µM | [15] 2.02 µM | [16] 2.04 µM | [17] 1.81 µM

CCOC(=O)C(C)NC(=O)C(C)NC(=O)C(C)NC(=O)C(C)NC(=O)C(C)NC(=O)C(C)NC(=O)C(C)NC(=O)OCc1ccccc1 (centres undefined) (Cbz-AAAAAAA-OEt; configuration not given here)
inactive: [1] > 100 µM | [2] > 100 µM | [4] > 100 µM | [5] > 100 µM | [6] > 100 µM | [7] > 100 µM | [18] > 100 µM | [8] > 100 µM | [9] > 100 µM | [10] > 100 µM | [19] > 100 µM | [11] > 100 µM | [12] > 100 µM | [13] > 100 µM | [14] > 100 µM | [15] > 100 µM | [16] > 100 µM | [17] > 100 µM
